Literature values, collected in patent publication US7579489B2, “Processes for the preparation and purification of hydroxymethylfuraldehyde and derivatives” (Archer-Daniels-Midland Company, priority 2004, dated 2009).

Details: water/octanol; values taken from Hansch & Leo (1979) and Leo, Hansch & Elkins (1971)

Row | Log P | SMILES
1 | 1.83 | CCCCCC(C)=O [2-Heptanone]
2 | 0.91 | CCCC(C)=O [2-Pentanone]
3 | −0.27 | C1COCCO1 [Dioxane]
4 | 0.66 | CCOC(C)=O [Ethyl acetate]
5 | 1.32 | CC(=O)CC(C)C [Methyl isobutyl ketone]

Row | SMILES | Log P
6 | CCC(C)=O [2-Butanone] | 0.29
7 | CCCCOC(C)=O [Butyl acetate] | 1.71
8 | ClC(Cl)Cl [Chloroform] | 2.24
9 | NC=O [Formamide] | −1.51
